Results on 1 compound are retold here after US20090208543A1, “METHOD AND APPARATUS FOR APPLYING A PROTECTIVE ORAL CARE COMPOSITION” (Oral Health Clinical Services, priority 2008, published 2009).

The nature of this test: Tooth bleaching effectiveness of gels on extracted human teeth (chroma meter, Delta E). The note with it: comparison of catalase inhibitors.

Description: Tooth bleaching effectiveness of the above gels was determined by using extracted human teeth. The teeth were freshly extracted, freed of all adherent tissues and stored in a sterile saline solution. The teeth were removed and the color was measured using a chroma meter commercially available from MINOLTA CR221. Readings were taken to record the L*, a*, and b* parameters. The teeth were then incubated in the various gels for 30 minutes. After this period, the gels were washed off and L*, a*, and b* parameters color re-measured. The change in color (Delta E) was then calculated using the CIE L*a*b* color difference equation:
Delta E=[(delta L*)^2+(delta a*)^2+(delta b*)^2]^0.5

Consider `[F-].[Na+]` [sodium fluoride], for which the “effectiveness among the compositions comprising the inhibitors” value was “least effective”.
